This note sets out measurements from US11827628B2, “Compositions and methods for inhibition of the JAK pathway” (Rigel Pharmaceuticals, Inc., priority 2005, dated 2023).

Experiment [1] relates to IL-4 stimulated expression of CD23 in human Ramos B cells (JAK-1 and JAK-3). The experiment in a line: Assay for Ramos B-Cell Line Stimulated with IL-4 (CD23 upregulation, FACS). In kind it is cell-based. Particulars: Homo sapiens, Ramos, Ramos B cells stimulated with IL-4, CD23 expression by FACS; read-out: IC50, Example 41. In outline:
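Log-phase Ramos cells, 1 h compound pre-incubation at 37 °C; IL-4 50 units/mL final, 20-24 h; CD23-PE stain, FACS; IC50.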

Experiment [2] deals with up-regulation of ICAM-1 (CD54) by IFNγ in U937 human monocytic cells. Put plainly: U937 IFNγ ICAM1 FACS Assay. Particulars: Homo sapiens, U-937, U937 cells stimulated with IFNγ, ICAM-1 expression by FACS; read-out: IC50, Example 44. The format is cell-based. The essentials:
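U937 cells in 10% FCS RPMI were preincubated 30 min at 37 °C with an 8-point, 3-fold compound dilution series in duplicate, then stimulated with IFNγ for 18–24 h. Surface ICAM-1 was stained with APC anti-ICAM-1 and read by flow cytometry as geometric mean on live-gated cells. EC50 was derived.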

As to `CN1C(=O)C(C)(C)S(=O)(=O)c2ccc(Nc3nc(Nc4ccc(S(N)(=O)=O)cc4)ncc3F)cc21` [VII-12, N2-(4-Aminosulphonylphenyl)-5-fluoro-N4-(2,2,4-trimethyl-1,1,3-trioxo-benzo[1,4]thiazin-6-yl)-2,4-pyrimidinediamine], the results for the IC50 in experiment [1] and in experiment [2] were 602 nM and 31800 nM, respectively.

As for `Cc1ccc(Nc2ncc(C)c(Nc3ccc4c(c3)NC(=O)CO4)n2)cc1S(N)(=O)=O` [VII-30, N2-(3-Aminosulphonyl-4-methylphenyl)-5-methyl-N4-(3-oxo-benz[1,4]oxazin-6-yl)-2,4-pyrimidinediamine], the IC50 was found to be 35.8 nM in experiment [1] and 701 nM in experiment [2].

In the case of `Cc1cnc(Nc2ccc(S(N)(=O)=O)cc2)nc1Nc1ccc2c(c1)NC(=O)CO2` [VII-31, N2-(4-Aminosulphonylphenyl)-5-methyl-N4-(3-oxo-benz[1,4]oxazin-6-yl)-2,4-pyrimidinediamine], the IC50 in experiment [1] came to 125 nM; in experiment [2], 7280 nM.

On to `Cc1cnc(Nc2cccc(S(N)(=O)=O)c2)nc1Nc1ccc2c(c1)NC(=O)CO2` [VII-32, N2-(3-Aminosulphonylphenyl)-5-methyl-N4-(3-oxo-benz[1,4]oxazin-6-yl)-2,4-pyrimidinediamine], for which the IC50 in experiment [1] is 107 nM; in experiment [2], 2060 nM.

As to `Cc1cnc(Nc2cccc(S(N)(=O)=O)c2)nc1Nc1ccc2c(c1)N(C)C(=O)CS2` [VII-35, N2-(3-Aminosulphonylphenyl)-5-methyl-N4-(4-methyl-3-oxo-benzo[1,4]thiazin-6-yl)-2,4-pyrimidinediamine], the 50% inhibitory concentration (IC50) came to 44.8 nM in experiment [1] and 245 nM in experiment [2].

Consider `Cc1ccc(Nc2ncc(F)c(Nc3ccc4c(c3)NC(=O)CS4)n2)cc1S(N)(=O)=O` [VII-44, N2-(3-Aminosulphonyl-4-methyl-phenyl)-5-fluoro-N4-(3-oxo-4H-benzo[1,4]thiazin-6-yl)-2,4-pyrimidinediamine], for which the IC50 in experiment [1] came to 33 nM; in experiment [2], 1230 nM.

For `CN1C(=O)CSc2ccc(Nc3nc(Nc4ccc(S(N)(=O)=O)cc4)ncc3F)cc21` [VII-48, N2-(4-Aminosulfonylphenyl)-5-fluoro-N4-(4-methyl-3-oxo-benz[1,4]thiazin-6-yl)-2,4-pyrimidinediamine], the half-inhibitory concentration (IC50) was determined as 30.8 nM in experiment [1] and 660 nM in experiment [2].

Turning to `CN1C(=O)CSc2ccc(Nc3nc(Nc4cccc(S(N)(=O)=O)c4)ncc3F)cc21` [VII-49, N2-(3-Aminosulfonylphenyl)-5-fluoro-N4-(4-methyl-3-oxo-benz[1,4]thiazin-6-yl)-2,4-pyrimidinediamine], the half-maximal inhibitory concentration (IC50) in experiment [1] is 37.8 nM; in experiment [2] it was 577 nM.

For the molecule `NC(=O)c1cc2cc(Nc3nc(Nc4cccc(S(N)(=O)=O)c4)ncc3F)ccc2o1` [VII-54, N2-(3-Aminosulfonylphenyl)-N4-(2-aminocarbonylbenzofurane-5-yl)-5-fluoro-2,4-pyrimidinediamine], the IC50 came to 295 nM in experiment [1] and 64600 nM in experiment [2].

On to `Cc1ccc(Nc2ncc(F)c(Nc3ccc4sccc4c3)n2)cc1S(N)(=O)=O` [VII-57, N2-(3-Aminosulfonyl-4-methylphenyl)-N4-(benzothiophen-5-yl)-5-fluoro-2,4-pyrimidinediamine], for which the IC50 was found to be 107 nM in experiment [1] and 735 nM in experiment [2].

Consider `NS(=O)(=O)c1cccc(Nc2ncc(F)c(Nc3ccc4sccc4c3)n2)c1` [VII-58, N2-(3-Aminosulfonylphenyl)-N4-(benzothiophen-5-yl)-5-fluoro-2,4-pyrimidinediamine], for which the IC50 turned out to be 136 nM in experiment [1] and 1100 nM in experiment [2].

On to `Cc1ccc(Nc2ncc(F)c(Nc3ccc4ncccc4c3)n2)cc1S(N)(=O)=O` [VII-69, N2-(3-Aminosulfonyl-4-methylphenyl)-5-fluoro-N4-(quinolin-6-yl)-2,4-pyrimidinediamine], for which the half-maximal inhibitory concentration (IC50) was determined as 76.7 nM in experiment [1] and 990 nM in experiment [2].

Take `NS(=O)(=O)c1cccc(Nc2ncc(F)c(Nc3ccc4ncccc4c3)n2)c1` [VII-70, N2-(3-Aminosulfonylphenyl)-5-fluoro-N4-(quinolin-6-yl)-2,4-pyrimidinediamine]: the 50% inhibitory concentration (IC50) turned out to be 65.4 nM in experiment [1] and 2760 nM in experiment [2].

Take `Cc1ccc2cc(Nc3nc(Nc4cccc(S(N)(=O)=O)c4)ncc3F)ccc2n1` [VII-72, N2-(3-Aminosulfonylphenyl)-5-fluoro-N4-(2-methylquinolin-6-yl)-2,4-pyrimidinediamine]: the IC50 was 84.8 nM in experiment [1] and 1180 nM in experiment [2].

As to `Cc1ccc(Nc2ncc(F)c(Nc3cccc4cccnc34)n2)cc1S(N)(=O)=O` [VII-77, N2-(3-Aminosulfonyl-4-methylphenyl)-5-fluoro-N4-(quinolin-8-yl)-2,4-pyrimidinediamine], the half-inhibitory concentration (IC50) in experiment [1] was 124 nM; in experiment [2] it was 3540 nM.
